Measurements as given in ChEMBL document CHEMBL1201862, “PubChem BioAssay data set” (2004).
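1) Cells in 96-well plates. 2) Compound, 48 h, 5 concentrations. 3) Linear interpolation between surrounding doses. 4) Unreached endpoint = highest concentration. GI50 marks 50% less growth.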 Activity calls are given as the source filed them. Rule as the data show it: active = GI50 up to about 1.1 µM and inactive = higher.

What was measured:
Experiment in all cases: DTP human tumour cell line panel, 48 h
[1] = system: HCC 2998
[2] = system: HCT-116
[3] = system: HL-60
[4] = system: HOP-62
[5] = system: HOP-92
[6] = system: HT-29
[7] = system: K562
[8] = system: MDA-MB-231
[9] = system: MOLT-4
[10] = system: NCI-H460
[11] = system: NCI-H522
[12] = system: OVCAR-4
[13] = system: OVCAR-8
[14] = system: PC-3
[15] = system: T47D
[16] = system: M14
[17] = system: RXF 393
[18] = system: SF-539
[19] = system: SK-OV-3
[20] = system: SR

| Compound | GI50 [1] | GI50 [2] | GI50 [3] | GI50 [4] | GI50 [5] | GI50 [6] | GI50 [7] | GI50 [8] | GI50 [9] | GI50 [10] | GI50 [11] | GI50 [12] | GI50 [13] | GI50 [14] | GI50 [15] | GI50 [16] | GI50 [17] | GI50 [18] | GI50 [19] | GI50 [20] |
| --- | --- | --- | --- | --- | --- | --- | --- | --- | --- | --- | --- | --- | --- | --- | --- | --- | --- | --- | --- | --- |
| O=c1c(C(c2ccco2)c2c(O)oc3ccccc3c2=O)c(O)oc2ccccc12 | 26.5 µM (inactive) | 78 µM (inactive) | 67.5 µM (inactive) | > 100 µM (inactive) | 25.5 µM (inactive) | 47.6 µM (inactive) | 38.6 µM (inactive) | 20 µM (inactive) | 25.6 µM (inactive) | > 100 µM (inactive) | 19.5 µM (inactive) | 70.8 µM (inactive) | 27.4 µM (inactive) | > 100 µM (inactive) | 43.3 µM (inactive) | – | – | – | – | – |
| O=C(CN1c2ccccc2Sc2ccccc21)N1CCNCC1 | – | > 100 µM (inactive) | > 100 µM (inactive) | > 100 µM (inactive) | 29.5 µM (inactive) | > 100 µM (inactive) | > 100 µM (inactive) | > 100 µM (inactive) | 64.7 µM (inactive) | > 100 µM (inactive) | – | > 100 µM (inactive) | > 100 µM (inactive) | 73.1 µM (inactive) | 71.9 µM (inactive) | > 100 µM (inactive) | 97.5 µM (inactive) | > 100 µM (inactive) | > 100 µM (inactive) | – |
| O=C(O)CCCC#CCCCC(=O)O | > 100 µM (inactive) | > 100 µM (inactive) | – | > 100 µM (inactive) | > 100 µM (inactive) | > 100 µM (inactive) | > 100 µM (inactive) | – | – | > 100 µM (inactive) | > 100 µM (inactive) | > 100 µM (inactive) | > 100 µM (inactive) | > 100 µM (inactive) | > 100 µM (inactive) | > 100 µM (inactive) | > 100 µM (inactive) | > 100 µM (inactive) | > 100 µM (inactive) | > 100 µM (inactive) |
| CCc1n[nH]c(=O)n1N=C(c1ccccc1)c1ccccc1 | – | > 100 µM (inactive) | > 100 µM (inactive) | > 100 µM (inactive) | > 100 µM (inactive) | > 100 µM (inactive) | > 100 µM (inactive) | > 100 µM (inactive) | > 100 µM (inactive) | > 100 µM (inactive) | > 100 µM (inactive) | > 100 µM (inactive) | > 100 µM (inactive) | > 100 µM (inactive) | > 100 µM (inactive) | > 100 µM (inactive) | > 100 µM (inactive) | – | – | – |
| CC(=O)C(C(C)=O)[C@@H]1OC(C)(C)O[C@@H]1[C@H]1COC(C)(C)O1 | > 100 µM (inactive) | 30.9 µM (inactive) | 26.6 µM (inactive) | 45.9 µM (inactive) | > 100 µM (inactive) | 32.8 µM (inactive) | 30.2 µM (inactive) | > 100 µM (inactive) | 47.5 µM (inactive) | 61.5 µM (inactive) | 26.9 µM (inactive) | 51.1 µM (inactive) | 40.6 µM (inactive) | 43.6 µM (inactive) | – | 47.4 µM (inactive) | 51.8 µM (inactive) | > 100 µM (inactive) | – | 38.8 µM (inactive) |
| CCOC(=O)c1ccc(-c2onc(C)c2Br)[nH]1 | > 100 µM (inactive) | 30.1 µM (inactive) | – | 59.3 µM (inactive) | 23 µM (inactive) | 39.5 µM (inactive) | 80.2 µM (inactive) | 41.7 µM (inactive) | > 100 µM (inactive) | > 100 µM (inactive) | 51.9 µM (inactive) | 43.2 µM (inactive) | 37.4 µM (inactive) | 60 µM (inactive) | 30 µM (inactive) | 62.7 µM (inactive) | 21.4 µM (inactive) | – | 76.6 µM (inactive) | – |
| COc1cc2c(cc1O)CCN[C@@]21CS[C@H]2c3c(OC(C)=O)c(C)c4c(c3C(COC1=O)N1C2C2NC(Cc3cc(C)c(OC)c(O)c32)[C@@H]1O)OCO4 (some centres not stated) | – | < 0.01 µM (active) | < 0.01 µM (active) | < 0.01 µM (active) | < 0.01 µM (active) | < 0.01 µM (active) | < 0.01 µM (active) | < 0.01 µM (active) | – | < 0.01 µM (active) | < 0.01 µM (active) | < 0.01 µM (active) | < 0.01 µM (active) | < 0.01 µM (active) | < 0.01 µM (active) | < 0.01 µM (active) | < 0.01 µM (active) | < 0.01 µM (active) | < 0.01 µM (active) | – |
| CC(C(=O)NCNC(=O)c1ccccc1)C(=O)Nc1ccccc1 (configuration not stated) | – | > 100 µM (inactive) | > 100 µM (inactive) | – | > 100 µM (inactive) | > 100 µM (inactive) | – | > 100 µM (inactive) | > 10 µM (inactive) | > 100 µM (inactive) | > 100 µM (inactive) | – | > 100 µM (inactive) | > 100 µM (inactive) | > 100 µM (inactive) | > 100 µM (inactive) | > 100 µM (inactive) | > 100 µM (inactive) | > 100 µM (inactive) | – |
